These results are taken from PubChem BioAssay (NCI).

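Test compounds were applied to cells in 96-well plates for 48 hours at 5 doses. Here, GI50 denotes the concentration required for 50% inhibition of growth. At the TGI there is no net growth.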

Test systems include T-47D breast; NCI/ADR-RES ovarian; DMS 273 small cell lung; KM20L2 colon; M19-MEL melanoma; XF 498 CNS; HOP-18 NSCLC; RXF-631 renal.
Common to all, as to test: NCI anticancer screen, dose series, 48 h

Regarding `CCN(CC)CCNc1ccc([N+](=O)[O-])c2sc3cc(Cl)ccc3c(=O)c12`, in the assay with T-47D breast, the GI50 was 29.8 µM and the TGI is over 100 µM.
As for `NC(Cc1ccccc1CP(=O)(O)O)C(=O)O` (stereo not given), the TGI with NCI/ADR-RES ovarian and in the assay on T-47D breast was over 100 µM throughout.
For `COc1ccc(CC[N+]2(C)COc3cc4oc(=O)cc(C)c4cc3C2)cc1OC` (stereo not given), the TGI in the assay on NCI/ADR-RES ovarian and in the assay with T-47D breast was over 100 µM each time.
As to `C(=C\c1c2oc(-c3ccccc3)cc(-c3ccccc3)c-2c2ccccc12)/C=C1\c2ccccc2-c2c(-c3ccccc3)cc(-c3ccccc3)[o+]c21`, the TGI with DMS 273 small cell lung, with KM20L2 colon, in the assay on M19-MEL melanoma and with XF 498 CNS was over 100 µM throughout.
Take `Cc1ccc(NCCN(C)C)c2c(=O)c3cc(O)ccc3sc12`: the TGI was 15.9 µM in the assay with DMS 273 small cell lung; 15.3 µM in the assay with HOP-18 NSCLC; 22 µM in the assay on KM20L2 colon; 23.1 µM in the assay on M19-MEL melanoma; 28.4 µM in the assay on T-47D breast; 17.2 µM in the assay with XF 498 CNS.
`Cc1ncc(CSC(=N)N)n1Cc1ccccc1`: the TGI in the assay with NCI/ADR-RES ovarian and with T-47D breast was over 100 µM in each case.
`CCOC(=O)c1csc(NC(=O)C(C)N2CCOCC2)n1` (stereo not given): the TGI with NCI/ADR-RES ovarian and in the assay on T-47D breast was over 100 µM throughout.
As for `O=S(=O)(O)c1cc(O)c(N=Nc2ccc3ccccc3c2O)c2ccccc12`, the TGI was 46.7 µM with NCI/ADR-RES ovarian and 84.6 µM in the assay with T-47D breast.
On to `c1cncc([O][Ge]([O]c2cccnc2)([O]c2cccnc2)[O]c2cccnc2)c1`, for which the GI50 in the assay on DMS 273 small cell lung, in the assay with HOP-18 NSCLC, with KM20L2 colon, in the assay with M19-MEL melanoma and in the assay with XF 498 CNS was over 100 µM in each case. Besides, the TGI with DMS 273 small cell lung, with HOP-18 NSCLC, with KM20L2 colon, with M19-MEL melanoma and in the assay on XF 498 CNS was over 100 µM in each case.
`CC(C)=CC(=O)c1c(C(=O)O)nc2ccccc2[n+]1[O-]`: the TGI in the assay on DMS 273 small cell lung, in the assay on KM20L2 colon, in the assay on M19-MEL melanoma and in the assay with RXF-631 renal was over 100 µM each time.
On to `CC(C)=CCC/C(C)=C/C=C/C(C)=C/C1C[C@@]2(C(O)O1)[C@H](CCCO)/C(=C(/C)C=O)CC[C@]2(C)O` (stereo not given in full), for which the TGI amounted to 7.82 µM with DMS 273 small cell lung; 33.4 µM in the assay on HOP-18 NSCLC; 29.1 µM in the assay on KM20L2 colon; 32.4 µM with M19-MEL melanoma; 32.7 µM with XF 498 CNS.
`CC(=O)[C@]1(O)Cc2c(O)c3c(c(O)c2[C@@H](OC2CC(N)C(O)C(C)O2)C1)C(=O)c1c(OCc2ccccc2)cccc1C3=O` (stereo not given in full): the TGI with HOP-18 NSCLC was 3.33 µM; in the assay on T-47D breast it was 8.11 µM; in the assay with XF 498 CNS it was 14.5 µM.
As for `O=C(O)/C=C/c1ccncc1`, the TGI in the assay with DMS 273 small cell lung, with KM20L2 colon, in the assay on M19-MEL melanoma and in the assay with XF 498 CNS was over 100 µM each time.
As for `COc1cc2c(cc1OCCCOc1ccc(-c3cc4ccccc4c4ccccc34)cc1)N=C[C@@H]1CCCN1C2=O`, the values for the GI50 in the assay with NCI/ADR-RES ovarian and in the assay on T-47D breast were 716 nM and 0.0887 µM, respectively. Besides, the TGI came out at 1.98 µM with NCI/ADR-RES ovarian and 0.598 µM with T-47D breast.
For the compound `CC1(Cl)CC(C)(/C=C/Cl)C(Cl)CC1Cl` (stereo not given), the TGI stood at 31.6 µM with KM20L2 colon, 59.1 µM in the assay on M19-MEL melanoma, 28.7 µM in the assay on RXF-631 renal and 27.4 µM with XF 498 CNS.
The compound `C[n+]1c(-c2ccc(/C=N/NC(=O)C(=O)N/N=C/c3ccc(-c4cn5ccccc5[n+]4C)cc3)cc2)cn2ccccc21` gave a TGI in the assay with NCI/ADR-RES ovarian of over 100 µM.
In the case of `Cc1ccc(NC(=O)C(=O)Cc2cccc[n+]2[O-])cc1C`, the TGI with HOP-18 NSCLC, in the assay with KM20L2 colon, with M19-MEL melanoma and in the assay on XF 498 CNS was over 100 µM each time.
Take `C/C(=N\NC(=S)N1CCOCC1)c1nc2ncccc2[nH]1`: the TGI with NCI/ADR-RES ovarian and with T-47D breast was over 100 µM in each case.
Turning to `CC1CCCN1CCCOC(=O)c1ccc(OC2C=CCCC2)cc1` (stereo not given), the TGI in the assay with NCI/ADR-RES ovarian is over 100 µM; with T-47D breast, 34.4 µM.
